Five compounds from ChEMBL document CHEMBL3994622, “Design and synthesis of new RAF kinase-inhibiting antiproliferative quinoline derivatives. Part 2: Diarylurea derivatives” (Eur J Med Chem, 2017) can be followed below.

What all share (type): functional
The test system of one assay is SNB-75. In words: Growth inhibition of human SNB75 cells assessed as cell growth at 10 uM incubated for 48 hrs by sulforhodamine B assay relative to control. As to conditions: SNB-75, 48 h, read-out: Activity. In general terms: The SRB assay estimates cell density from bound dye.
Assay [1] has as its system HOP-62. In words: Growth inhibition of human HOP62 cells assessed as cell growth at 0.1 uM incubated for 48 hrs by sulforhodamine B assay relative to control. As to conditions: HOP-62, 48 h, read-out: Activity.
The subject of the next assay is MCF7. Briefly: Growth inhibition of human MCF7 cells assessed as cell growth at 0.1 uM incubated for 48 hrs by sulforhodamine B assay relative to control. The conditions noted are these: MCF7, 48 h, read-out: Activity.
Another assay concerns M14. Briefly: Growth inhibition of human M14 cells assessed as cell growth at 0.1 uM incubated for 48 hrs by sulforhodamine B assay relative to control. The conditions noted are these: M14, 48 h, read-out: Activity.
In a further assay the test system is HCC 2998. Briefly: Growth inhibition of human HCC2998 cells assessed as cell growth at 0.01 uM incubated for 48 hrs by sulforhodamine B assay relative to control. As to conditions: HCC 2998, 48 h, read-out: Activity.
The test system of a further assay is 786-0. Briefly: Growth inhibition of human 786-0 cells assessed as cell growth at 100 uM incubated for 48 hrs by sulforhodamine B assay relative to control. As to conditions: 786-0, 48 h, read-out: Activity.
The next assay deals with U-251. Briefly: Growth inhibition of human U251 cells assessed as cell growth at 100 uM incubated for 48 hrs by sulforhodamine B assay relative to control. As to conditions: U-251, 48 h, read-out: Activity.
In the next assay the test system is NCI-H522. In words: Growth inhibition of human NCI-H522 cells assessed as cell growth at 10 uM incubated for 48 hrs by sulforhodamine B assay relative to control. The conditions noted are these: NCI-H522, 48 h, read-out: Activity.
The test system of assay [2] is LOX IMVI. In words: Growth inhibition of human LOXIMVI cells assessed as cell growth at 0.03 uM incubated for 48 hrs by sulforhodamine B assay relative to control. As to conditions: read-out: Activity.
In another assay the test system is OVCAR-4. In words: Growth inhibition of human OVCAR4 cells assessed as cell growth at 0.3 uM incubated for 48 hrs by sulforhodamine B assay relative to control. As to conditions: OVCAR-4, 48 h, read-out: Activity.
The test system of a further assay is DU-145. In words: Growth inhibition of human DU145 cells assessed as cell growth at 0.3 uM incubated for 48 hrs by sulforhodamine B assay relative to control. The conditions noted are these: DU-145, 48 h, read-out: Activity.
In another assay the test system is OVCAR-8. Briefly: Growth inhibition of human OVCAR8 cells assessed as cell growth at 0.03 uM incubated for 48 hrs by sulforhodamine B assay relative to control. As to conditions: OVCAR-8, 48 h, read-out: Activity.
A further assay relates to MDA-MB-435. In words: Growth inhibition of human MDA-MB-435 cells assessed as cell growth at 30 uM incubated for 48 hrs by sulforhodamine B assay relative to control. As to conditions: MDA-MB-435, 48 h, read-out: Activity.
The test system of assay [3] is LOX IMVI. In words: Growth inhibition of human LOXIMVI cells assessed as cell growth at 0.3 uM incubated for 48 hrs by sulforhodamine B assay relative to control. As to conditions: read-out: Activity.
The next assay concerns MDA-MB-468. In words: Growth inhibition of human MDA-MB-468 cells assessed as cell growth at 100 uM incubated for 48 hrs by sulforhodamine B assay relative to control. The conditions noted are these: MDA-MB-468, 48 h, read-out: Activity.
For the next assay, the system named is HOP-92. In words: Growth inhibition of human HOP92 cells assessed as cell growth at 0.005 uM incubated for 48 hrs by sulforhodamine B assay relative to control. As to conditions: HOP-92, 48 h, read-out: Activity.
The test system of the next assay is HCT-15. In words: Growth inhibition of human HCT15 cells assessed as cell growth at 0.05 uM incubated for 48 hrs by sulforhodamine B assay relative to control. The conditions noted are these: HCT-15, 48 h, read-out: Activity.
For the next assay, the system named is OVCAR-5. In words: Growth inhibition of human OVCAR5 cells assessed as cell growth at 50 uM incubated for 48 hrs by sulforhodamine B assay relative to control. As to conditions: OVCAR-5, 48 h, read-out: Activity.
In assay [4] the test system is UACC-62. In words: Growth inhibition of human UACC62 cells assessed as cell growth at 0.05 uM incubated for 48 hrs by sulforhodamine B assay relative to control. The conditions noted are these: UACC-62, 48 h, read-out: Activity.
Another assay has as its system HT-29. Briefly: Growth inhibition of human HT-29 cells assessed as cell growth at 0.005 uM incubated for 48 hrs by sulforhodamine B assay relative to control. The conditions noted are these: HT-29, 48 h, read-out: Activity.
A further assay deals with NCI-H460. In words: Growth inhibition of human NCI-H460 cells assessed as cell growth at 0.05 uM incubated for 48 hrs by sulforhodamine B assay relative to control. As to conditions: NCI-H460, 48 h, read-out: Activity.
In a further assay the test system is RXF 393. In words: Growth inhibition of human RXF393 cells assessed as cell growth at 50 uM incubated for 48 hrs by sulforhodamine B assay relative to control. The conditions noted are these: RXF 393, 48 h, read-out: Activity.
In another assay the test system is PC-3. Briefly: Growth inhibition of human PC3 cells assessed as cell growth at 50 uM incubated for 48 hrs by sulforhodamine B assay relative to control. The conditions noted are these: PC-3, 48 h, read-out: Activity.
A further assay relates to MDA-MB-231. In words: Growth inhibition of human MDA-MB-231 cells assessed as cell growth at 0.5 uM incubated for 48 hrs by sulforhodamine B assay relative to control. As to conditions: MDA-MB-231, 48 h, read-out: Activity.
The next assay has as its system HCT-116. In words: Growth inhibition of human HCT116 cells assessed as cell growth at 0.005 uM incubated for 48 hrs by sulforhodamine B assay relative to control. The conditions noted are these: HCT-116, 48 h, read-out: Activity.
The next assay concerns NCI-H226. Briefly: Growth inhibition of human NCI-H226 cells assessed as cell growth at 5 uM incubated for 48 hrs by sulforhodamine B assay relative to control. As to conditions: NCI-H226, 48 h, read-out: Activity.
The next assay has as its system TK-10. In words: Growth inhibition of human TK10 cells assessed as cell growth at 0.5 uM incubated for 48 hrs by sulforhodamine B assay relative to control. As to conditions: TK-10, 48 h, read-out: Activity.
In another assay the test system is OVCAR-3. Briefly: Growth inhibition of human OVCAR3 cells assessed as cell growth at 50 uM incubated for 48 hrs by sulforhodamine B assay relative to control. The conditions noted are these: OVCAR-3, 48 h, read-out: Activity.
Another assay has as its system BT-549. Briefly: Growth inhibition of human BT549 cells assessed as cell growth at 50 uM incubated for 48 hrs by sulforhodamine B assay relative to control. As to conditions: BT-549, 48 h, read-out: Activity.
A further assay concerns SF-295. Briefly: Growth inhibition of human SF295 cells assessed as cell growth at 0.005 uM incubated for 48 hrs by sulforhodamine B assay relative to control. The conditions noted are these: SF-295, 48 h, read-out: Activity.
Assay [5] relates to UACC-62. Briefly: Growth inhibition of human UACC62 cells assessed as cell growth at 5 uM incubated for 48 hrs by sulforhodamine B assay relative to control. As to conditions: UACC-62, 48 h, read-out: Activity.
A further assay has as its system Hs-578T. Briefly: Growth inhibition of human Hs 578T cells assessed as cell growth at 0.5 uM incubated for 48 hrs by sulforhodamine B assay relative to control. As to conditions: read-out: Activity.
The test system of assay [6] is HOP-62. In words: Growth inhibition of human HOP62 cells assessed as cell growth at 50 uM incubated for 48 hrs by sulforhodamine B assay relative to control. As to conditions: HOP-62, 48 h, read-out: Activity.

`COc1cc2cc(Oc3ccc(NC(=O)Nc4ccc(Cl)c(Cl)c4)cc3)c(C)nc2cc1OC`: the results for the growth at 10 µM with SNB-75 and in the assay with NCI-H522 were -7% and -5%, respectively. Further, the results for the growth at 0.1 µM in the assay on HOP-62 [1], with MCF7 and with M14 were 104%, 92% and 97%, respectively. Further, the growth at 0.01 µM in the assay with HCC 2998 came to 101%. The growth at 100 µM with 786-0 is -66%; with U-251, -100%.
For `COc1cc2cc(Oc3ccc(NC(=O)Nc4ccc(Cl)c(C(F)(F)F)c4)cc3)c(C)nc2cc1OC`, the growth at 0.03 µM was 99% in the assay with LOX IMVI [2] and 94% in the assay on OVCAR-8. Besides, the growth at 0.3 µM in the assay with OVCAR-4 turned out to be 94%; in the assay with DU-145, 95%; in the assay on LOX IMVI [3] it was 101%. For the same compound, the growth at 30 µM with MDA-MB-435 was -46%.
With `COc1cc2cc(Oc3ccc(NC(=O)Nc4cc(C(F)(F)F)cc(C(F)(F)F)c4)cc3)c(C)nc2cc1OC`, the growth at 10 µM with SNB-75 is -32%; in the assay with NCI-H522, -71%. For the same compound, the values for the growth at 0.1 µM with HOP-62 [1], in the assay with MCF7 and in the assay with M14 were 94%, 92% and 97%, respectively. Moreover, the growth at 100 µM in the assay with MDA-MB-468 is -67%; in the assay on 786-0, -83%; with U-251 it was -83%. Also, in the assay on HCC 2998, the growth at 0.01 µM came out at 99%.
For `Cc1nc2cc(O)c(O)cc2cc1Oc1ccc(NC(=O)Nc2ccc(Cl)c(Cl)c2)cc1`, the growth at 0.3 µM in the assay on OVCAR-4 amounted to 94%; in the assay on DU-145 it was 106%. Further, the growth at 0.03 µM in the assay with OVCAR-8 was found to be 93%. In addition, the growth at 30 µM with MDA-MB-435 was 7%.
As for `COc1cc2cc(Oc3ccc(NC(=O)Nc4cccc(C(F)(F)F)c4)cc3)c(C)nc2cc1OC`, the growth at 0.005 µM amounted to 96% in the assay with HOP-92, 100% with HT-29, 100% with HCT-116 and 90% with SF-295. Besides, the growth at 0.05 µM is 94% in the assay with HCT-15, 94% in the assay on UACC-62 [4] and 106% in the assay with NCI-H460. In addition, the growth at 50 µM was -44% in the assay with OVCAR-5; -69% in the assay on RXF 393; -65% in the assay on PC-3; -57% with OVCAR-3; -69% in the assay on BT-549; -85% with HOP-62 [6]. Besides, the results for the growth at 0.5 µM in the assay on MDA-MB-231, in the assay on TK-10 and with Hs-578T were 81%, 108% and 99%, respectively. Further, the values for the growth at 5 µM with NCI-H226 and in the assay with UACC-62 [5] were 3% and 22%, respectively.
